Starred links: 1 amine or outer side, 2 acyl side, 3 side chain; linkers in the order of their positions; H or OH if unused. Non-standard residues stand in square brackets, D forms with d. Residues, ends and D or L forms follow the SMILES beside them. Groups on a side chain read outwards from the residue. *: point of attachment. C18 diacid = O=C(O)CCCCCCCCCCCCCCCCC(=O)*; γGlu = O=C(O)[C@H](CCC(=O)[*:2])N[*:1]; AEEA = NCCOCCOCC(=O)O; Aib = CC(C)(N)C(=O)O
target: T1, human GLP-1 receptor (Homo sapiens, UniProt P43220); experiment: Assay (II)(a) GLP-1 receptor binding, 125I-GLP-1 displacement SPA on BHK membranes; details: without presence of serum albumin; read-out: GLP-1R IC50 (nM) [Assay (II)(a)]
T1 construct: expressed in transfected cells; host or cells: membranes of BHK cells (parent BHKTS13), clone FCW467-12A
T1 sequence (P43220 24-463): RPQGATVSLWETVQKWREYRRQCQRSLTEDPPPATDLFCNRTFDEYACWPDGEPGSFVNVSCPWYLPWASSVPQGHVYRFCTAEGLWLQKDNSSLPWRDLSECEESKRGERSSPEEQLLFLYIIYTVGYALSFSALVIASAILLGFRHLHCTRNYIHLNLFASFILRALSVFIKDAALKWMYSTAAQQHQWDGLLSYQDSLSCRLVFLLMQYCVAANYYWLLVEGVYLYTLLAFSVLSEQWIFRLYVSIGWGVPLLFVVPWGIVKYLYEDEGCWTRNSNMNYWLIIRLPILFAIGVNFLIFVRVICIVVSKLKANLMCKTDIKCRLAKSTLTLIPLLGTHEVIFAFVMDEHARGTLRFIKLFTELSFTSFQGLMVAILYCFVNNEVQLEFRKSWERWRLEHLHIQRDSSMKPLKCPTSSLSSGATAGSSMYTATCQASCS
Procedure: The GLP-1 receptor (GLP-1R) binding is a measure of affinity of a compound for the human GLP-1 receptor. The receptor binding of each compound to the human GLP-1 receptor was measured in a displacement binding assay. In this type of assay a labelled ligand (in this case 125I-GLP-1) is bound to the receptor. Each derivative was added in a series of concentrations to isolated membranes containing the human GLP-1 receptor and displacement of the labelled ligand was monitored. The receptor binding was reported as the concentration at which half of the labelled ligand was displaced from the receptor, the IC50 value. In order to test the binding of the derivatives to albumin, the assay may be performed in a very low concentration of serum albumin (max. 0.001% final assay concentration) as well as in the presence of a (considerably) higher concentration of serum albumin (2.0% final assay concentration). An increase of the IC50 value, in the presence of serum albumin indicates an affinity to serum albumin and represents a method to predict a protracted pharmacokinetic profile of the test substance in animal models. The following chemicals were used in the assay: DMEM w/o phenol red (Gibco 11880-028), Pen/strep (Invitrogen 15140-122), G418 (Invitrogen 10131-027), 1 M Hepes (Gibco 15630), EDTA (Invitrogen 15575-038), PBS (Invitrogen 14190-094), fetal calf serum (Invitrogen 16140-071), EGTA, MgCl2 (Merck 1.05832.1000), Tween 20 (Amresco 0850C335), SPA particles (wheat germ agglutinin (WGA) SPA beads, Perkin Elmer RPNQ0001), [125I]-GLP-1]-(7-36)NH2 (produced in-house), OptiPlate™-96 (Perkin Elmer). Buffer 1 consisted of 20 mM Na-HEPES plus 10 mM EDTA and pH was adjusted to 7.4. Buffer 2 consisted of 20 mM Na-HEPES plus 0.1 mM EDTA and pH was adjusted to 7.4. Assay buffer consisted of 50 mM HEPES supplemented with 5 mM EGTA, 5 mM MgCl2, 0.005% Tween 20 and pH was adjusted to 7.4. The cells used in this assay (clone FCW467-12A) were BHK cells with BHKTS13 as a parent cell line. The cells express the human GLP-1 receptor. The cells were grown at 5% CO2 in DMEM, 10% fetal calf serum, 1% Pen/Strep (Penicillin/Streptomycin) and 1.0 mg/ml of the selection marker G418. To make a membrane preparation the cells were grown to approximately 80% confluence. The cells were washed twice in phosphate-buffered saline and harvested. The cells were pelleted using a brief centrifugation and the cell pellet was kept on ice. The cell pellet was homogenised with ULTRA-THURRAX dispersing instrument for 20-30 seconds in a suitable amount of buffer 1 (e.g., 10 ml). The homogenate was centrifuged for 15 minutes. The pellet was re-suspended (homogenised) in 10 ml buffer 2 and centrifuged. This step was repeated once more. The resulting pellet was re-suspended in buffer 2 and the protein concentration was determined. The membranes were aliquoted and stored at minus 80° C. • 1. For the receptor binding assay, 50 μl of the assay buffer was added to each well of an assay plate. • 2. Test compounds were serially diluted to give the following concentrations: 8×10EE-7 M, 8×10EE-8 M, 8×10EE-9 M, 8×10EE-10 M, 8×10EE-11 M, 8×10EE-12 M and 8×10EE-13 M. Twenty-five μl were added to appropriate wells in the assay plate. • 3. Cell membrane aliquots were thawed and diluted to their working concentration. Fifty μl were added to each well in the assay plate. • 4. WGA SPA beads were suspended in assay buffer at 20 mg/ml. The suspension was diluted to 10 mg/ml in assay buffer just prior to addition to the assay plate. Fifty μl were added to each well in the assay plate. • 5. The incubation was started by adding 25 μl of […] solution of [125I]-GLP-1]-(7-36)NH2 to each well of the assay plate. A 25 μl aliquot was reserved for measuring total counts/well. • 6. The assay plate was incubated for 2 h at 30° C. • 7. The assay plate was centrifuged for 10 min. • 8. The assay plate was read in a Perkin Elmer TopCount NXT instrument. […]

Compared with `CC[C@H](C)[C@H](NC(=O)[C@H](CC(C)C)NC(=O)[C@H](Cc1c[nH]c2ccccc12)NC(=O)[C@H](CCCCNC(=O)COCCOCCNC(=O)COCCOCCNC(=O)CC[C@H](NC(=O)CC[C@H](NC(=O)CC[C@H](NC(=O)CCCCCCCCCCCCCCCCC(=O)O)C(=O)O)C(=O)O)C(=O)O)NC(=O)[C@@H](NC(=O)[C@H](Cc1ccccc1)NC(=O)[C@H](CC(=O)O)NC(=O)[C@H](CCCNC(=N)N)NC(=O)[C@H](C)NC(=O)[C@H](CCCNC(=N)N)NC(=O)[C@H](CCCNC(=N)N)NC(=O)[C@H](C)NC(=O)[C@H](CC(=O)O)NC(=O)[C@H](CC(C)C)NC(=O)[C@H](Cc1ccc(O)cc1)NC(=O)[C@H](CCCCN)NC(=O)[C@H](CO)NC(=O)[C@H](Cc1ccc(O)cc1)NC(=O)[C@H](CC(=O)O)NC(=O)[C@H](CO)NC(=O)[C@@H](NC(=O)[C@H](Cc1ccccc1)NC(=O)[C@@H](NC(=O)CNC(=O)[C@H](CCC(N)=O)NC(=O)C(C)(C)NC(=O)[C@@H](N)Cc1c[nH]cn1)[C@@H](C)O)[C@@H](C)O)C(C)C)C(=O)N[C@@H](CO)C(=O)N[C@H](C(N)=O)[C@@H](C)O` [Chem. 1, N^ε24-[2-[2-[2-[[2-[2-[2-[[(4S)-4-carboxy-4-[[(4S)-4-carboxy-4-[[(4S)-4-carboxy-4-(17-carboxyheptadecanoylamino)butanoyl]amino]butanoyl]amino]butanoyl]amino]ethoxy]ethoxy]acetyl]amino]ethoxy]ethoxy]acetyl]-[Aib2,Ala16,Arg20,Lys24,Ile27,Ser28]-Glucagon amide] (H-H[Aib]QGTFTSDYSKYLDARRARDFVK([AEEA-AEEA-γGlu-γGlu-γGlu-C18 diacid])WLIST-NH2), `CC[C@H](C)[C@H](NC(=O)[C@H](CC(C)C)NC(=O)[C@H](Cc1c[nH]c2ccccc12)NC(=O)[C@H](CCC(N)=O)NC(=O)[C@@H](NC(=O)[C@H](Cc1ccccc1)NC(=O)[C@H](CC(=O)O)NC(=O)[C@H](CCC(N)=O)NC(=O)[C@H](C)NC(=O)[C@H](CCCNC(=N)N)NC(=O)[C@H](CCCNC(=N)N)NC(=O)[C@H](C)NC(=O)[C@H](CC(=O)O)NC(=O)[C@H](CC(C)C)NC(=O)[C@H](Cc1ccc(O)cc1)NC(=O)[C@H](CCCCN)NC(=O)[C@H](CO)NC(=O)[C@@H](NC(=O)[C@H](CC(=O)O)NC(=O)[C@H](CO)NC(=O)[C@@H](NC(=O)[C@H](Cc1ccccc1)NC(=O)[C@@H](NC(=O)CNC(=O)[C@H](CCC(N)=O)NC(=O)C(C)(C)NC(=O)[C@@H](N)Cc1c[nH]cn1)[C@@H](C)O)[C@@H](C)O)C(C)C)C(C)C)C(=O)N[C@@H](CCCCNC(=O)CC[C@H](NC(=O)COCCOCCNC(=O)COCCOCCNC(=O)CC[C@H](NC(=O)CC[C@H](NC(=O)CCCCCCCCCCCCCCCCC(=O)O)C(=O)O)C(=O)O)C(=O)O)C(=O)N[C@H](C(N)=O)[C@@H](C)O` [Chem. 39, N^ε28-[(4S)-4-carboxy-4-[[2-[2-[2-[[2-[2-[2-[[(4S)-4-carboxy-4-[[(4S)-4-carboxy-4-(17-carboxyheptadecanoylamino)butanoyl]amino]butanoyl]amino]ethoxy]ethoxy]acetyl]amino]ethoxy]ethoxy]acetyl]amino]butanoyl]-[Aib2,Val10,Ala16,Ile27,Lys28]-Glucagon amide] (H-H[Aib]QGTFTSDVSKYLDARRAQDFVQWLIK([γGlu-AEEA-AEEA-γGlu-γGlu-C18 diacid])T-NH2; N-terminus assumed) is 9-fold lower in IC50: 0.9 nM for the first, 0.1 nM for the second.

In the case of `CC[C@H](C)[C@H](NC(=O)[C@H](CC(C)C)NC(=O)[C@H](Cc1c[nH]c2ccccc12)NC(=O)[C@H](CCC(N)=O)NC(=O)[C@@H](NC(=O)[C@H](Cc1ccccc1)NC(=O)[C@H](CC(=O)O)NC(=O)[C@H](CCC(N)=O)NC(=O)[C@H](C)NC(=O)[C@H](CCCNC(=N)N)NC(=O)[C@H](CCCNC(=N)N)NC(=O)[C@H](CC(C)C)NC(=O)[C@H](CC(=O)O)NC(=O)[C@H](CC(C)C)NC(=O)[C@H](Cc1ccc(O)cc1)NC(=O)[C@H](CCCCN)NC(=O)[C@H](CO)NC(=O)[C@H](CC(C)C)NC(=O)[C@H](CC(=O)O)NC(=O)[C@H](CO)NC(=O)[C@@H](NC(=O)[C@H](Cc1ccccc1)NC(=O)[C@@H](NC(=O)CNC(=O)[C@H](CCC(N)=O)NC(=O)C(C)(C)NC(=O)[C@@H](N)Cc1c[nH]cn1)[C@@H](C)O)[C@@H](C)O)C(C)C)C(=O)N[C@@H](CCCCNC(=O)COCCOCCNC(=O)COCCOCCNC(=O)CC[C@H](NC(=O)CC[C@H](NC(=O)CC[C@H](NC(=O)CCCCCCCCCCCCCCCCC(=O)O)C(=O)O)C(=O)O)C(=O)O)C(=O)N[C@H](C(N)=O)[C@@H](C)O` [Chem. 9, N^ε28-[2-[2-[2-[[2-[2-[2-[[(4S)-4-carboxy-4-[[(4S)-4-carboxy-4-[[(4S)-4-carboxy-4-(17-carboxyheptadecanoylamino)butanoyl]amino]butanoyl]amino]butanoyl]amino]ethoxy]ethoxy]acetyl]amino]ethoxy]ethoxy]acetyl]-[Aib2,Leu10,Leu16,Ile27,Lys28]-Glucagon amide] (H-H[Aib]QGTFTSDLSKYLDLRRAQDFVQWLIK([AEEA-AEEA-γGlu-γGlu-γGlu-C18 diacid])T-NH2; N-terminus assumed), the IC50 is reported as 0.5 nM.

From patent publication US10570184B2, “GLP-1/glucagon receptor co-agonists for medical use” (Novo Nordisk A/S, priority 2014, dated 2020)
